Results published in the NIST ThermoML archive (doi:10.1016/j.jct.2018.03.016).
± gives the expanded uncertainty stated by the source.

Settings: Liquid; for speed of sound: Frequency=5 MHz, Single path-length method; for mass density: Vibrating tube method

A speed of sound (323.15 K, 14000 kPa) of 1562.3 ± 3.8 m/s, a speed of sound (323.15 K, 15000 kPa) of 1566.3 ± 3.8 m/s and a speed of sound (323.15 K, 16000 kPa) of 1568.9 ± 3.8 m/s were found for `CCC(=O)[O-].[NH3+]CCO` [2-hydroxyethan-1-aminium propionate] in this work. It also gave a speed of sound (323.15 K, 17000 kPa) of 1572.9 ± 3.8 m/s, a speed of sound (323.15 K, 18000 kPa) of 1576.9 ± 3.8 m/s and a speed of sound (323.15 K, 19000 kPa) of 1581 ± 3.8 m/s. For the same compound, the speed of sound (323.15 K, 20000 kPa) was 1585 ± 3.8 m/s, the mass density (333.08 K, 35000 kPa) was 1096.1 ± 1.4 kg/m3 and the mass density (333.09 K, 10000 kPa) was 1084.9 ± 1.3 kg/m3. The mass density (333.09 K, 15000 kPa) was 1087.4 ± 1.3 kg/m3, the mass density (333.09 K, 25000 kPa) was 1091.8 ± 1.4 kg/m3 and the mass density (333.09 K, 30000 kPa) was 1093.9 ± 1.4 kg/m3. It also gave a mass density (333.1 K, 20000 kPa) of 1089.7 ± 1.3 kg/m3, a mass density (333.12 K, 100 kPa) of 1079.6 ± 1.3 kg/m3 and a speed of sound (333.15 K, 100 kPa) of 1474.9 ± 3.8 m/s. The speed of sound (333.15 K, 1000 kPa) was 1479.7 ± 3.8 m/s, the speed of sound (333.15 K, 2000 kPa) was 1484.6 ± 3.8 m/s and the speed of sound (333.15 K, 3000 kPa) was 1488.3 ± 3.8 m/s. For the same compound, the speed of sound (333.15 K, 4000 kPa) was 1493.2 ± 3.8 m/s, the speed of sound (333.15 K, 5000 kPa) was 1497 ± 3.8 m/s and the speed of sound (333.15 K, 6000 kPa) was 1501.9 ± 3.8 m/s. It also gave a speed of sound (333.15 K, 7000 kPa) of 1505.7 ± 3.8 m/s, a speed of sound (333.15 K, 8000 kPa) of 1509.5 ± 3.8 m/s and a speed of sound (333.15 K, 9000 kPa) of 1514.5 ± 3.8 m/s. It also gave a speed of sound (333.15 K, 10000 kPa) of 1518.3 ± 3.8 m/s, a speed of sound (333.15 K, 11000 kPa) of 1523.3 ± 3.8 m/s and a speed of sound (333.15 K, 12000 kPa) of 1527.2 ± 3.8 m/s. It also gave a speed of sound (333.15 K, 13000 kPa) of 1531 ± 3.8 m/s, a speed of sound (333.15 K, 14000 kPa) of 1534.9 ± 3.8 m/s and a speed of sound (333.15 K, 15000 kPa) of 1540 ± 3.8 m/s. For the same compound, the speed of sound (333.15 K, 16000 kPa) was 1543.8 ± 3.8 m/s, the speed of sound (333.15 K, 17000 kPa) was 1547.7 ± 3.8 m/s and the speed of sound (333.15 K, 18000 kPa) was 1551.6 ± 3.8 m/s. For the same compound, the speed of sound (333.15 K, 19000 kPa) was 1555.5 ± 3.8 m/s, the speed of sound (333.15 K, 20000 kPa) was 1559.5 ± 3.8 m/s and the speed of sound (343.15 K, 100 kPa) was 1449.3 ± 3.8 m/s. For the same compound, the speed of sound (343.15 K, 1000 kPa) was 1453 ± 3.8 m/s, the speed of sound (343.15 K, 2000 kPa) was 1456.8 ± 3.8 m/s and the speed of sound (343.15 K, 3000 kPa) was 1461.8 ± 3.8 m/s. For the same compound, the speed of sound (343.15 K, 4000 kPa) was 1466.7 ± 3.8 m/s, the speed of sound (343.15 K, 5000 kPa) was 1471.7 ± 3.8 m/s and the speed of sound (343.15 K, 6000 kPa) was 1475.5 ± 3.8 m/s. The speed of sound (343.15 K, 7000 kPa) was 1480.5 ± 3.8 m/s, the speed of sound (343.15 K, 8000 kPa) was 1485.5 ± 3.8 m/s and the speed of sound (343.15 K, 9000 kPa) was 1489.3 ± 3.8 m/s. For the same compound, the speed of sound (343.15 K, 10000 kPa) was 1494.3 ± 3.8 m/s, the speed of sound (343.15 K, 11000 kPa) was 1499.4 ± 3.8 m/s and the speed of sound (343.15 K, 12000 kPa) was 1503.2 ± 3.8 m/s. For the same compound, the speed of sound (343.15 K, 13000 kPa) was 1508.2 ± 3.8 m/s, the speed of sound (343.15 K, 14000 kPa) was 1513.3 ± 3.8 m/s and the speed of sound (343.15 K, 15000 kPa) was 1517.2 ± 3.8 m/s. It also gave a speed of sound (343.15 K, 16000 kPa) of 1522.2 ± 3.8 m/s, a speed of sound (343.15 K, 17000 kPa) of 1526.1 ± 3.8 m/s and a speed of sound (343.15 K, 18000 kPa) of 1530 ± 3.8 m/s. The speed of sound (343.15 K, 19000 kPa) was 1533.8 ± 3.8 m/s, the speed of sound (343.15 K, 20000 kPa) was 1537.7 ± 3.8 m/s and the mass density (343.17 K, 100 kPa) was 1066 ± 1.3 kg/m3. It also gave a mass density (343.17 K, 20000 kPa) of 1076.6 ± 1.3 kg/m3, a mass density (343.17 K, 25000 kPa) of 1079 ± 1.3 kg/m3 and a mass density (343.17 K, 30000 kPa) of 1081.8 ± 1.4 kg/m3. It also gave a mass density (343.18 K, 15000 kPa) of 1074.3 ± 1.3 kg/m3, a mass density (343.18 K, 35000 kPa) of 1084.1 ± 1.4 kg/m3 and a mass density (343.19 K, 10000 kPa) of 1070.6 ± 1.3 kg/m3. For the same compound, the speed of sound (353.15 K, 100 kPa) was 1416 ± 3.8 m/s, the speed of sound (353.15 K, 1000 kPa) was 1421 ± 3.8 m/s and the speed of sound (353.15 K, 2000 kPa) was 1426.1 ± 3.8 m/s. For the same compound, the speed of sound (353.15 K, 3000 kPa) was 1431.2 ± 3.8 m/s, the speed of sound (353.15 K, 4000 kPa) was 1436.3 ± 3.8 m/s and the speed of sound (353.15 K, 5000 kPa) was 1441.4 ± 3.8 m/s. The speed of sound (353.15 K, 6000 kPa) was 1446.5 ± 3.8 m/s, the speed of sound (353.15 K, 7000 kPa) was 1451.7 ± 3.8 m/s and the speed of sound (353.15 K, 8000 kPa) was 1456.8 ± 3.8 m/s. The speed of sound (353.15 K, 9000 kPa) was 1463.1 ± 3.8 m/s, the speed of sound (353.15 K, 10000 kPa) was 1467 ± 3.8 m/s and the speed of sound (353.15 K, 11000 kPa) was 1473.3 ± 3.8 m/s. The speed of sound (353.15 K, 12000 kPa) was 1478.4 ± 3.8 m/s, the speed of sound (353.15 K, 13000 kPa) was 1482.4 ± 3.8 m/s and the speed of sound (353.15 K, 14000 kPa) was 1487.5 ± 3.8 m/s. The speed of sound (353.15 K, 15000 kPa) was 1492.6 ± 3.8 m/s, the speed of sound (353.15 K, 16000 kPa) was 1496.5 ± 3.8 m/s and the speed of sound (353.15 K, 17000 kPa) was 1500.4 ± 3.8 m/s. It also gave a speed of sound (353.15 K, 18000 kPa) of 1504.4 ± 3.8 m/s, a speed of sound (353.15 K, 19000 kPa) of 1509.5 ± 3.8 m/s and a speed of sound (353.15 K, 20000 kPa) of 1513.3 ± 3.8 m/s.
